Assay: In vitro whitening test on coffee-stained bovine teeth (ΔW*)
Conditions: Example 6, MPS added to 2% hydrogen peroxide mouthwash
Experimental: The bovine teeth have initial L values of 57-65. The teeth are submerged in deionized water, then removed and soaked for 2 minutes in 20 mL of the test solution. The teeth are then rinsed three times with deionized water. Each such treatment cycle is repeated fourteen times, and after every two cycles values for L*, a* and b* are measured. These figures are used to calculate a whiteness score, W*, which is a measure of overall color change relative to pure white:
ΔW*=W*(treated)−W*(baseline)
The resulting instant whitening mouthwash is compared to a comparative 2% hydrogen peroxide whitening mouthwash composition using the procedure described in Example 5.
The comparative HP mouthwash is compared to the MPS mouthwash and the MPS/HP mouthwash in side-by-side experiments.

With `O=S(=O)([O-])O[O-].[K+].[K+]` [MPS, potassium peroxymonosulfate] the “whitening effect when added to a hydrogen peroxide mouthwash” value was “significant and unexpected additive whitening effect”.

Reference: patent publication US20170172880A1, “Fast Dissolving Peroxymonosulfate Composition” (Colgate-Palmolive Company, priority 2015, published 2017)
